Data from patent publication US20090054411A1, “4-ANILINOQUINOLINE-3-CARBOXAMIDES AS CSF-1R KINASE INHIBITORS” (AstraZeneca AB, priority 2006, published 2009).

Biological target: T1, CSF-1R (Homo sapiens, UniProt P07333)
T1 construct: His-tagged kinase domain of CSF-1R (i.e., amino acids 568-912, GeneBank ID NM_005211); His; made in house; host or cells: baculovirus-infected SF+Express insect cells
T1 sequence (P07333 568-912): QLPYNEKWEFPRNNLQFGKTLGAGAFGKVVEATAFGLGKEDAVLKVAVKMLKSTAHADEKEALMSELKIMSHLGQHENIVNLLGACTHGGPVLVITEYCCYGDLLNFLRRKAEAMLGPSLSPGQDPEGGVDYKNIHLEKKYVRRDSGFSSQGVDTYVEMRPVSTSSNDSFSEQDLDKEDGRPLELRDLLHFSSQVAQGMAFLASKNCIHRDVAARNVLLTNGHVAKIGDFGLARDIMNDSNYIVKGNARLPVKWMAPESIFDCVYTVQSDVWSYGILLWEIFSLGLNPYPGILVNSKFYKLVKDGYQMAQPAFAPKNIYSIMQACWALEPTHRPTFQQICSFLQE
Assay: CSF-1R In Vitro AlphaScreen Assay
Type: biochemical
Conditions: purified His-tagged kinase domain of CSF-1R, pEY substrate, 90 μM ATP
Experimental: Activity of purified CSF-1R was determined in vitro using an Amplified Luminescent Proximity Homogeneous Assay (ALPHA)(Perkin Elmer), which measures phosphorylation of the CSF-1R substrate, biotinylated poly-glutamine-tyrosine peptide (pEY-HTRF CisBio 61GT0BLD), as described below.
The phosphorylation of the CSF-1R substrate in the presence and absence of the compound of interest was determined. […] Plates were incubated at 25° C. for 18 hours in the dark. Phosphorylated substrate was detected by an EnVision plate reader (Perkin Elmer) 680 nm excitation, 520-620 nm emission. Data was graphed and IC50s calculated using Excel Fit (Microsoft).

| IC50 | SMILES |
| --- | --- |
| 23 nM | COc1cc2c(Nc3cccc(Cl)c3Cl)c(C(N)=O)cnc2cc1N1CCN(C)CC1 [Example 9] |
| 154 nM | NC(=O)c1cnc2cc(F)c(N3CCOCC3)cc2c1Nc1ccc(F)cc1F [Example 18] |
